Results as given in patent US8642765B2, “Azaindole-indole coupled derivatives, preparation methods and uses thereof” (priority 2007, dated 2014).

What was measured:
DU145 tumor cells = assay: MTT growth inhibition of DU145 cells, 72 h; assay type: cell-based, human; details: for IC50 / IC90: DU145, 72 h, MTT
Method: DU145 cells were inoculated in RPM11640 medium containing 10% calf serum, incubated at 37° C., 5% CO2 in CO2 incubator, and passaged every 2-3 days. In this experiment, cells were grown in logarithmic growth phase.
In the experiment, the cells at logarithmic growth phase were formulated into suspension, and the viability by trypan blue staining was more than 98%. The suspension was divided into several groups: 1 as blank control group (cell suspension); and 2 as experimental groups (cell suspension plus drugs).
(§1) The drugs were formulated into a stock solution in DMSO, and the concentration of the stock solution was 20 mmol (used within 4 hours). In the experiment, the work solution of the drugs was diluted with RPM11640 medium containing 10% calf serum under aseptic condition, to a final concentration of 80 μM. The drug concentrations were increased by 2 times (1.25-20 μM).
(§2) The DU145 cell in logarithmic growth phase were selected, centrifuged, counted, and formulated into a cell suspension (2.5×10^4/ml) with RPM11640 medium containing 10% calf serum. The cell suspension were inoculated into 96-well plates at a density of 5000 cells/200 μl per well, incubated for 24 hours at 37° C., 5% CO2. According to the above concentration of the drug, the cells were inoculated to 6 groups (including one control group), with 8 wells per group. After incubating for 72 hours, the viability of cells was measured by MTT assay. The absorbance value (A) was measured with detection wavelength at 540 nm, reference wavelength at 630 nm. The inhibitory rate (I) was calculated by the following equation, where T was the absorbance value of the experimental groups, and C was the absorbance value of the blank control group: I=(1−T/C)×100%
(§3) The regression equation was calculated by the concentration-inhibitory rate curve, to obtain 50% and 90% inhibition concentration (IC50 and IC90, μM).

[1] = test system: human hepatoma cell line 7701 QGY; assay: MTT growth inhibition of 7701 QGY cells; assay type: cell-based; details: read-out: IC50 (μM) Tumor cells 7701 QGY
Method: as §1, §2, §3
(§4) 1. Tumor Cells: human hepatoma cell lines 7701 QGY and HepG-2, human lung adenocarcinoma cell line A549, human chronic myelocytic leukemia cell line K562, human leukemia cell line CEM and mouse melanoma cell line K111.
(§5) 2. Using the methods described in example 2, the biological activity of a portion of newly synthesized 5- or 7-azaindirubin derivatives and 5- or 7-azaisoindigo derivatives (20 compounds) for inhibiting various tumor cells growth were determined.

[2] = test system: mouse melanoma cell line K111; assay: MTT growth inhibition of K111 cells; assay type: cell-based; details: Klll, read-out: IC50 (μM) Tumor cells Klll
Method: as §1, §2, §3, §4, §5

[3] = test system: human leukemia cell line CEM; assay: MTT growth inhibition of CEM cells; assay type: cell-based; details: read-out: IC50 (μM) Tumor cells CEM
Method: as §1, §2, §3, §4, §5

[4] = test system: human hepatoma cell line HepG-2; assay: MTT growth inhibition of HepG-2 cells; assay type: cell-based; details: HepG-2, MTT; read-out: IC50 (μM) Tumor cells HepG-2
Method: as §1, §2, §3, §4, §5

[5] = test system: human lung adenocarcinoma cell line A549; assay: MTT growth inhibition of A549 cells; assay type: cell-based; details: read-out: IC50 (μM) Tumor cells A549
Method: as §1, §2, §3, §4, §5

[6] = test system: human chronic myelocytic leukemia cell line K562; assay: MTT growth inhibition of K562 cells; assay type: cell-based; details: read-out: IC50 (μM) Tumor cells K562
Method: as §1, §2, §3, §4, §5

[7] = Homo sapiens, DU-145, 72 h, Table 5
[8] = Homo sapiens, DU-145, 72 h, Table 6

| Compound | IC50 (DU145 tumor cells; Table 5) [µM] | IC90 (DU145 tumor cells; Table 5) [µM] | IC50 (DU145 tumor cells; Table 6) [µM] | IC90 (DU145 tumor cells; Table 6) [µM] | also measured |
| --- | --- | --- | --- | --- | --- |
| CC(C)N1C(=O)C(=C2Nc3ccccc3C2=O)c2cnccc21 [Compound 7] | > 100 | – | – | – | – |
| CCCCN1C(=O)C(=C2Nc3ccccc3C2=O)c2cnccc21 [Compound 8] | 11.5 | 39 | – | – | – |
| O=C1C(=C2C(=O)N(Cc3ccccc3)c3ccncc32)Nc2ccccc21 [Compound 9] | 12 | 85 | – | – | – |
| CCN1C(=O)C(=C2Nc3ccc(Br)cc3C2=O)c2cnccc21 [Compound 12] | 8.8 | 28 | – | – | – |
| CC(C)N1C(=O)C(=C2Nc3ccc(Cl)cc3C2=O)c2cnccc21 [Compound 15] | 9 | 48 | – | – | – |
| CN1C(=O)C(=C2Nc3ccc(Cl)cc3C2=NO)c2cnccc21 [Compound 25] | 1.7 | 12.2 | – | – | growth inhibitory effects on tumor cells (in words) (DU145 tumor cells; discussion of the MTT assay, DU145): relatively significant growth inhibitory effects |
| CCN1C(=O)C(=C2Nc3ccc(Br)cc3C2=NO)c2cnccc21 [Compound 28] | 4.5 | 14 | – | – | – |
| CCN1C(=O)C(=C2Nc3ccc(Cl)cc3C2=NO)c2cnccc21 [Compound 29] | 2.2 | 6.8 | – | – | – |
| CC(C)N1C(=O)C(=C2Nc3ccc(Cl)cc3C2=NO)c2cnccc21 [Compound 31] | 3.7 | 11.5 | – | – | – |
| O=C1C(=C2Nc3ccc(Cl)cc3C2=NO)c2cnccc2N1Cc1ccccc1 [Compound 35] | 7.3 | 20 | – | – | – |
| CCN1C(=O)C(=C2Nc3ccccc3C2=NO)c2cnccc21 [Compound 38] | 6.4 | 22 | – | – | – |
| CN1C(=O)C(=C2C(=O)Nc3ccc(F)cc32)c2cnccc21 [Compound 63] | 48 | > 100 | – | – | – |
| CC(=O)OCC1OC(N2C(=O)C(=C3C(=O)Nc4ccccc43)c3cnccc32)C(OC(C)=O)C1OC(C)=O (centres unmarked) [Compound 67] | 8 | 44 | – | – | – |
| CCN1C(=O)C(=C2C(=O)Nc3ccc(F)cc32)c2cnccc21 [Compound 71] | 17 | 87 | – | – | – |
| CC(C)N1C(=O)C(=C2C(=O)Nc3ccc(Cl)cc32)c2cnccc21 [Compound 75] | 9.7 | 29 | – | – | – |
| CCCCN1C(=O)C(=C2C(=O)Nc3ccccc32)c2cnccc21 [Compound 78] | 16 | 51 | – | – | – |
| CCCCN1C(=O)C(=C2C(=O)Nc3ccc(Br)cc32)c2cnccc21 [Compound 79] | 14.5 | 77 | – | – | – |
| CCCCN1C(=O)C(=C2C(=O)Nc3ccc(F)cc32)c2cnccc21 [Compound 82] | > 100 | > 100 | – | – | – |
| CCN1C(=O)/C(=C2\Nc3ccccc3C2=O)c2ccccc21 [Compound 90, 1-ethyl-indirubin, reference compound] | – | – | – | – | IC50 (DU145 tumor cells; [7]): 7.2 µM; IC90 (DU145 tumor cells; [7]): 31 µM; IC50 (DU145 tumor cells; [8]): 7 µM; IC90 (DU145 tumor cells; [8]): 30 µM |
| COc1ccc2c(c1)C(=O)C(=C1C(=O)N(C)c3ncc(C)cc31)N2 [Compound 95] | – | – | 400 | > 100 | IC50 [1]: 23.9 µM; IC50 [2]: 15.6 µM; IC50 [3]: 9 µM; IC50 [4]: 50.1 µM; IC50 [5]: 35.2 µM; IC50 [6]: 8.1 µM |
| CC(C)N1C(=O)C(=C2Nc3ccccc3C2=O)c2cccnc21 [Compound 98] | – | – | > 100 | – | – |

| Compound | IC50 (DU145 tumor cells; Table 5) [µM] | IC90 (DU145 tumor cells; Table 5) [µM] | IC50 (DU145 tumor cells; Table 6) [µM] | IC90 (DU145 tumor cells; Table 6) [µM] | also measured |
| --- | --- | --- | --- | --- | --- |
| CCCCN1C(=O)C(=C2Nc3ccccc3C2=O)c2cccnc21 [Compound 99] | – | – | 11.5 | 87 | IC50 [1]: 12.4 µM; IC50 [2]: 10.1 µM; IC50 [3]: 7.1 µM; IC50 [4]: 29.3 µM; IC50 [5]: 18.4 µM; IC50 [6]: 6.7 µM |
| O=C1C(=C2C(=O)N(Cc3ccccc3)c3ncccc32)Nc2ccccc21 [Compound 100] | – | – | 9.5 | 31.5 | – |
| CN1C(=O)C(=C2Nc3ccc(Br)cc3C2=O)c2cccnc21 [Compound 101] | – | – | 11.5 | 60 | IC50 [1]: 15 µM; IC50 [2]: 23 µM; IC50 [3]: 12 µM; IC50 [4]: 28.8 µM; IC50 [5]: 21.6 µM; IC50 [6]: 7.8 µM |
| CCN1C(=O)C(=C2Nc3ccc(Br)cc3C2=O)c2cccnc21 [Compound 103] | – | – | 10 | 32.2 | – |
| CCN1C(=O)C(=C2Nc3ccc(Cl)cc3C2=O)c2cccnc21 [Compound 104] | – | – | 8.5 | 45 | – |
| CCCCN1C(=O)C(=C2Nc3ccc(Br)cc3C2=O)c2cccnc21 [Compound 107] | – | – | 14 | 26 | – |
| CCCCN1C(=O)C(=C2Nc3ccc(Cl)cc3C2=O)c2cccnc21 [Compound 108] | – | – | 11 | 42 | – |
| CCN1C(=O)C(=C2Nc3ccc(Cl)cc3C2=NO)c2cccnc21 [Compound 120] | – | – | 5.4 | 61 | – |
| CC(C)N1C(=O)C(=C2Nc3ccc(Cl)cc3C2=NO)c2cccnc21 [Compound 122] | – | – | 8 | 25 | – |
| CCCCN1C(=O)C(=C2Nc3ccc(Br)cc3C2=NO)c2cccnc21 [Compound 123] | – | – | 3.7 | 5 | – |
| CC(C)N1C(=O)C(=C2Nc3ccccc3C2=NO)c2cccnc21 [Compound 130] | – | – | 7.05 | 17 | – |
| CCCCN1C(=O)C(=C2Nc3ccccc3C2=NO)c2cccnc21 [Compound 131, 1-butyl-7-azaindirubin-3′-oxime] | – | – | 16 | 80 | – |
| CCN1C(=O)C(=C2C(=O)Nc3ccc(Cl)cc32)c2cccnc21 [Compound 161] | – | – | 14 | 45 | – |
| CCN1C(=O)C(=C2C(=O)Nc3ccc(F)cc32)c2cccnc21 [Compound 162] | – | – | 17.5 | 89 | – |
| CC(C)N1C(=O)C(=C2C(=O)Nc3ccc(Br)cc32)c2cccnc21 [Compound 165] | – | – | 8.3 | 28 | – |
| CC(C)N1C(=O)C(=C2C(=O)Nc3ccc(Cl)cc32)c2cccnc21 [Compound 166] | – | – | 10 | 31.5 | – |
| CCCCN1C(=O)C(=C2C(=O)Nc3ccccc32)c2cccnc21 [Compound 169] | – | – | 14 | 47 | – |
| CCCCN1C(=O)C(=C2C(=O)Nc3ccc(Cl)cc32)c2cccnc21 [Compound 171] | – | – | 9 | 46 | – |
| CCCCN1C(=O)C(=C2C(=O)Nc3ccc(F)cc32)c2cccnc21 [Compound 173] | – | – | > 100 | > 100 | – |
| O=C1Nc2ccc(Br)cc2C1=C1C(=O)N(Cc2ccccc2)c2ncccc21 [Compound 176] | – | – | – | – | IC50 [1]: 13.7 µM; IC50 [2]: 8.3 µM; IC50 [3]: 7.4 µM; IC50 [4]: 20.6 µM; IC50 [5]: 13.2 µM; IC50 [6]: 4.1 µM |
| CC1=C(/C=C/C(C)=C/C=C/C(C)=C/C(=O)O)C(C)(C)CCC1 [all-trans retinoic acid, reference compound] | – | – | – | – | IC50 (DU145 tumor cells; [7]): > 50 µM; IC50 (DU145 tumor cells; [8]): > 50 µM |
